Data set [1] has as its target T1, Tau K18 aggregates (Tau K18 fragment, amino acids 244 to 372 of human Tau441) (Homo sapiens, UniProt P10636).
T1 construct: encompassing amino acids 244 to 372 of the longest isoform (2N4R) of human Tau441; host or cells: bacteria
As to the kind of experiment: Tau K18 disaggregation assay by ThT. Format: biochemical. The note with it: 2 μM K18 aggregates, 160 to 0.04 μM compound, 30 min RT, ThT fluorescence. Here is the method: Tau K18 Disaggregation Assay by ThT
The Tau K18 fragment, encompassing amino acids 244 to 372 of the longest isoform (2N4R) of human Tau441, was expressed in bacteria and purified or bought from SignalChem. For the K18 disaggregation assay by ThT, 35 μM of recombinant K18 in PBS were aggregated for 24 hours at 37° C. in presence of 50 μM of heparin (Sigma-Aldrich) and 10 mM of DTT (Sigma-Aldrich) under shaking at 750 RPM. Compounds were dissolved in anhydrous dimethyl sulfoxide (DMSO, Sigma-Aldrich) to reach a concentration of 10 mM. K18 aggregates and serial dilutions of compounds were mixed together in PBS (volume 50 μL) to a final concentration of 2 μM of K18 aggregates and from 160 to 0.04 μM of compounds. The mixture was incubated for 30 minutes at room temperature (RT), then 40 μL of this mixture were transferred into a black 384-well plate assay (Perkin-Elmer) and mixed with 10 μL of 100 μM ThT in 250 mM glycine (both from Sigma-Aldrich) in PBS. Fluorescence (relative fluorescence units; RFU) was measured in monoplicate or duplicate on a Tecan reader (excitation: 440 nm; emission: 485 nm). Percentage of K18 disaggregation was then calculated and half maximal effective concentration (EC50) was determined using GraphPad Prism version 5 (GraphPad Software) assuming a one-binding site fitting model.

A short description of data set [2]: CSF/Plasma ratio determination, in-vivo pharmacokinetics mouse p.o. Set-up: species or system CD-1 male mice. The note with it: for CSF/plasma AUC ratio / AUC(0-t): male, CD-1, po; for AUC(0-t): plasma, read-out: Plasma AUC0-last. Here is the method:
CSF/Plasma Ratio Determination
Test compounds were administered to CD-1 male mice as a single oral dose of 10 or 20 mg/kg of a homogenous suspension (10 mL/kg, 1 or 2 mg/mL in 0.5% CMC (w/v) in water) by gavage using a plastic syringe fitted with a metal gavage tube. Terminal blood, brain and CSF samples were collected from three animals at several time points, typically at 2, 4, 8 and 24 h post-dose.
Blood samples were transferred into 1.5-mL plastic tubes containing K2-EDTA (0.5M, 3 uL) as an anti-coagulant and placed on wet ice, and were then processed to obtain plasma by centrifugation at approximately 5° C. (3000 g, 15 min) within 30 min after collection. An aliquot of 10 μL sample was protein precipitated with 150 μL IS, the mixture was vortex-mixed well and centrifuged at 13000 rpm for 10 min, 4° C. 30 μL supernatant was then mixed with 30 μL water, vortex-mixed well and centrifuged at 4° C. 2 μL sample was injected for LC-MS/MS analysis.
The collected CSF was transferred to polypropylene microcentrifuge tubes. CSF samples were added with an equal volume of plasma. An aliquot of 6 μL sample was protein precipitated with 90 μL IS, the mixture was vortex-mixed well and centrifuged at 13000 rpm for 10 min, 4° C. 30 μL supernatant was then mixed with 30 μL water, vortex-mixed well and centrifuged at 4° C. 2 μL sample was injected for LC-MS/MS analysis.
Test substance concentration in plasma and CSF versus time data were analyzed by non-compartmental approaches; AUC0-last in plasma and CSF were calculated with the log-linear trapezoidal rule. CSF/Plasma ratio was calculated as follows:
AUC0-last(CSF)/AUC0-last(plasma)

The target in data set [3] is T2, full-length Tau (flTau, 2N4R) aggregates (Homo sapiens, UniProt P10636).
T2 construct: 35 μM of recombinant full-length (fl)Tau in PBS were aggregated; made in house; host or cells: bacteria
T2 sequence (P10636 1-441 isoform P10636-8): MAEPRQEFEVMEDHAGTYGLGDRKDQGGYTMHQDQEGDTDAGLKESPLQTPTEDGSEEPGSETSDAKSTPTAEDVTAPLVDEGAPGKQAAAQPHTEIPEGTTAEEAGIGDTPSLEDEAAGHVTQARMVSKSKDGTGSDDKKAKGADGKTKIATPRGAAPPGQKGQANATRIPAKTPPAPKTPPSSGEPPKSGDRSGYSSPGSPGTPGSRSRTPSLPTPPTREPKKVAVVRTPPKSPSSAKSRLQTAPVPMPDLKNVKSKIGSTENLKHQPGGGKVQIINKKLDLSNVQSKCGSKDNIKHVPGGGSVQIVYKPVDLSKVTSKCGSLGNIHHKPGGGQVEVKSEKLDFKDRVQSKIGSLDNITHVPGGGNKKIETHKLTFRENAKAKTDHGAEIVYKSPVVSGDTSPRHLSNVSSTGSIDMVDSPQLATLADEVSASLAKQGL
As to the kind of experiment: Tau disaggregation assay by DLS (dynamic light scattering). The data set is classed as biochemical. The note with it: 2 μM flTau aggregates, 20 μM compound, 60 min RT. The procedure: Tau disaggregation assay by DLS (dynamic light scattering)
The longest isoform of human Tau (2N4R; 441 amino acids) was expressed in bacteria. For the Tau disaggregation assay by DLS, 35 μM of recombinant full-length (fl)Tau in PBS were aggregated for 24 h at 37° C. in presence of 50 μM of heparin (Sigma-Aldrich) and 10 mM of DTT (Sigma-Aldrich) under shaking at 750 RPM. Morphomers™ were dissolved in DMSO (Sigma-Aldrich) to reach a concentration of 10 mM. flTau aggregates and compounds were mixed together in PBS (volume 80 μL) to a final concentration of 2 μM of flTau aggregates and 20 μM of Morphomers™. The mixture was incubated for 60 min at RT. Then […] of solution was transferred into a 40 μl cuvette (Malvern) and the size of flTau aggregates was measured with a Zetasizer Nano (Malvern) at an angle of 173° with 3 runs of 5 times 15 sec each. Number of events were taken into consideration to assess size of flTau aggregates. Percentage of disaggregation was then measured using the dynamic range between flTau monomers and flTau aggregates.

Where [4] appears, read: 20 mg/kg, AUC0-last(CSF)/AUC0-last(plasma).

Each structure is given as a SMILES string. Where two headings read alike, the source gives them in different places.

Broadly, the EC50 is the midpoint of the concentration-response curve. Read a high EC50 as lower potency in that assay.

T1 sequence (P10636 561-689): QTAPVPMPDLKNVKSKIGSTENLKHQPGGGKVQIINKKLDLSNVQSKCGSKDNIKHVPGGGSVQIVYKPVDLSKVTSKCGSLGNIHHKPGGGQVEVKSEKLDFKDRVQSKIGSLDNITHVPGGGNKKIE

The compound `Fc1ccc2c3c([nH]c2c1)CCN(c1ccc2oc(N4CCOCC4)nc2c1)C3` [Comparative Example 2] registered an EC50 in data set [1] of less than 10 µM. Also, in data set [2] (20 mg/kg), the “CSF AUC0-last” value was 56.70 ng·h/mL and the AUC(0-t) stood at 17800 ng·h/mL. In data set [2] (setting [4]), the CSF/plasma AUC ratio turned out to be 0.003.

`Fc1cccc2[nH]c3c(c12)CN(c1ccc2oc(N4CCOCC4)nc2c1)CC3` [Comparative Example 3] registered an EC50 in data set [1] of less than 10 µM. In addition, in data set [2] (10 mg/kg), the “CSF AUC0-last” value is 19.705 ng·h/mL and the AUC(0-t) came out at 4590 ng·h/mL. Besides, in data set [2] (10 mg/kg, AUC0-last(CSF)/AUC0-last(plasma)), the CSF/plasma AUC ratio was 0.004.

`c1ccc2c3c([nH]c2c1)CCN(c1ccc2oc(N4CCOCC4)nc2c1)C3` [Example 1] displayed an EC50 in data set [1] of less than 10 µM. In addition, the “DLS % Percentage of disaggregation (flTau)” value in data set [3] is recorded as 25%. In addition, in data set [2] (setting [4]), the CSF/Plasma ratio entry was “highest CSF/plasma ratio” and the CSF/plasma AUC ratio was found to be 0.014. In data set [2] (20 mg/kg), the “CSF AUC0-last” value came out at 327.0 ng·h/mL and the AUC(0-t) was found to be 23700 ng·h/mL.

In data set [1], `Fc1cccc2c3c([nH]c12)CCN(c1ccc2oc(N4CCOCC4)nc2c1)C3` [Comparative Example 4] returned an EC50 of less than 10 µM. Also, in data set [2] (20 mg/kg), the “CSF AUC0-last” value came out at 66.5 ng·h/mL and the AUC(0-t) turned out to be 14500 ng·h/mL. For the same compound, in data set [2] (setting [4]), the CSF/plasma AUC ratio was determined as 0.005.

`Fc1ccc2[nH]c3c(c2c1)CN(c1ccc2oc(N4CCOCC4)nc2c1)CC3` [Comparative Example 1] showed an EC50 in data set [1] of less than 10 µM. Moreover, in data set [2] (20 mg/kg), the “CSF AUC0-last” value was determined as 121.03 ng·h/mL and the AUC(0-t) was 17400 ng·h/mL. The CSF/plasma AUC ratio in data set [2] (setting [4]) amounted to 0.007.

For the compound `c1ccc2c3c([nH]c2c1)CCN(c1ccc2oc(N4CCOCC4)nc2n1)C3` [Example 5], the EC50 in data set [1] was less than 10 µM.

Values taken from patent US20220127263A1, “Novel Compounds for the Treatment, Alleviation or Prevention of Disorders Associated with Tau Aggregates” (AC Immune SA, priority 2019, published 2022).
